Earlier results, collected in patent publication US10155994B2, “Methods of detecting DDR2 mutations” (QUEST DIAGNOSTICS INVESTMENTS INCORPORATED, priority 2012, dated 2018).

Conditions: current daily oral dosing; from Bradeen et al. Blood 2006

| SMILES | achievable plasma trough concentration |
| --- | --- |
| Cc1nc(Nc2ncc(C(=O)Nc3c(C)cccc3Cl)s2)cc(N2CCN(CCO)CC2)n1 [dasatinib] | 100 nM |
| Cc1cn(-c2cc(NC(=O)c3ccc(C)c(Nc4nccc(-c5cccnc5)n4)c3)cc(C(F)(F)F)c2)cn1 [nilotinib] | 2000 nM |
